# Reference: patent US6465457B1 (priority 1991, dated 2002)
# Experiments:
# Format in all cases: in vivo
# [1] = tested on: Erysiphe graminis tritici (Wheat); assay: Foliar fungal disease test on plants: Erysiphe graminis tritici (Wheat); details: 100 ppm a.i. foliar spray or root drench (approx. 40 ppm in dry soil); plants inoculated 24 hours before treatment
# [2] = tested on: Septoria nodorum (Wheat); assay: Foliar fungal disease test on plants: Septoria nodorum (Wheat); details: 100 ppm a.i. foliar spray or root drench (approx. 40 ppm in dry soil), one or two days before inoculation
# [3] = tested on: Puccinia recondita (Wheat); assay: Foliar fungal disease test on plants: Puccinia recondita (Wheat)
# [4] = tested on: Plasmopara viticola (Vines); assay: Foliar fungal disease test on plants: Plasmopara viticola (Vines); details: 100 ppm a.i. foliar spray or root drench (approx. 40 ppm in dry soil), one or two days before inoculation
# [5] = tested on: Phytophthora infestans (Tomatoes); details: 100 ppm a.i. foliar spray or root drench (approx. 40 ppm in dry soil), one or two days before inoculation
# [6] = tested on: Pyricularia oryzae (Rice); details: 100 ppm a.i. foliar spray or root drench (approx. 40 ppm in dry soil), one or two days before inoculation
# [7] = tested on: Venturia inaequalis (Apples); assay: Foliar fungal disease test on plants: Venturia inaequalis (Apples); details: 100 ppm a.i. foliar spray or root drench (approx. 40 ppm in dry soil), one or two days before inoculation
# [8] = tested on: Thanatephorus cucumeries (Rice); assay: Foliar fungal disease test on plants: Thanatephorus cucumeries (Rice); details: 100 ppm a.i. foliar spray or root drench (approx. 40 ppm in dry soil), one or two days before inoculation
# [9] = 100 ppm a.i. foliar spray or root drench (approx. 40 ppm in dry soil), one or two days before inoculation
# [10] = 100 ppm a.i. foliar spray or root drench, plants inoculated with Puccinia recondita 48 hours before treatment
SMILES,"POCO (Percentage of Control) disease level, Erysiphe graminis tritici (Wheat) [1]","POCO (Percentage of Control) disease level, Septoria nodorum (Wheat) [2]","POCO (Percentage of Control) disease level, Puccinia recondita (Wheat) [3, 9]","POCO (Percentage of Control) disease level, Plasmopara viticola (Vines) [4]","POCO (Percentage of Control) disease level, Phytophthora infestans (Tomatoes) [5]","POCO (Percentage of Control) disease level, Pyricularia oryzae (Rice) [6]","POCO (Percentage of Control) disease level, Venturia inaequalis (Apples) [7]","POCO (Percentage of Control) disease level, Thanatephorus cucumeries (Rice) [8]","POCO (Percentage of Control) disease level, Puccinia recondita (Wheat) [3, 10]"
COC=C(C(=O)OC)c1ccccc1COC(=S)Nc1cccc(C(F)(F)F)c1 [2 (6)],60 (60 = 30.1-60% disease present),60 (60 = 30.1-60% disease present),30 (30 = 20.1-30% disease present),30 (30 = 20.1-30% disease present),60 (60 = 30.1-60% disease present),5 (5 = 3.1-5% disease present),3 (3 = 1.1-3% disease present),90 (90 and 94 = 60.1-100% disease present),
COC=C(C(=O)OC)c1ccccc1COC(=O)N1CCCCC1 [2 (133)],60 (60 = 30.1-60% disease present),90 (90 and 94 = 60.1-100% disease present),,5 (5 = 3.1-5% disease present),90 (90 and 94 = 60.1-100% disease present),20 (20 and 24 = 10.1-20% disease present),5 (5 = 3.1-5% disease present),90 (90 and 94 = 60.1-100% disease present),90+ (90 and 94 = 60.1-100% disease present)
COC=C(C(=O)OC)c1ccccc1COC(=O)Nc1ccccc1F [3 (1)],0 (0 = 0% disease present),0 (0 = 0% disease present),0 (0 = 0% disease present),0 (0 = 0% disease present),30 (30 = 20.1-30% disease present),90 (90 and 94 = 60.1-100% disease present),1 (1 = 0.1-1% disease present),90 (90 and 94 = 60.1-100% disease present),
"CO/C=C(/C(=O)OC)c1ccccc1COC(=O)NN1CCOCC1 [3 (133), (E)-methyl 3-methoxy-2-[2-(morpholinocarbamoyloxymethyl)phenyl]propenoate]",90 (90 and 94 = 60.1-100% disease present),90 (90 and 94 = 60.1-100% disease present),,90 (90 and 94 = 60.1-100% disease present),90 (90 and 94 = 60.1-100% disease present),90 (90 and 94 = 60.1-100% disease present),60 (60 = 30.1-60% disease present),90 (90 and 94 = 60.1-100% disease present),90+ (90 and 94 = 60.1-100% disease present)
COC=C(C(=O)OC)c1ccccc1COC(=O)NCc1ccccc1 [4 (1)],90 (90 and 94 = 60.1-100% disease present),30 (30 = 20.1-30% disease present),30 (30 = 20.1-30% disease present),20 (20 and 24 = 10.1-20% disease present),60 (60 = 30.1-60% disease present),90 (90 and 94 = 60.1-100% disease present),60 (60 = 30.1-60% disease present),90 (90 and 94 = 60.1-100% disease present),
COC=C(C(=O)OC)c1ccccc1COC(=O)N1CCSCC1 [4 (133)],90 (90 and 94 = 60.1-100% disease present),90 (90 and 94 = 60.1-100% disease present),,0 (0 = 0% disease present),90 (90 and 94 = 60.1-100% disease present),90 (90 and 94 = 60.1-100% disease present),10 (10 = 5.1-10% disease present),60 (60 = 30.1-60% disease present),60+ (60 = 30.1-60% disease present)
